From article PMC9030254, “Target Hopping from Protein Kinases to PXR: Identification of Small-Molecule Protein Kinase Inhibitors as Selective Modulators of Pregnane X Receptor from TüKIC Library” (Cells, 2022)

Tests used:
Assay in all cases: Kinase profiling
Type in all cases: biochemical
AKT1 = target: T1, AKT1 (Homo sapiens, UniProt P31749)
T1 construct: purchased ProQinase (Freiburg, Germany)
Method: (§1) The analysis was performed by ProQinase (Freiburg, Germany).

TYRO3 = target: T2, TYRO3 (Homo sapiens, UniProt Q06418)
T2 construct: purchased ProQinase (Freiburg, Germany)
T2 sequence (Q06418 41-890): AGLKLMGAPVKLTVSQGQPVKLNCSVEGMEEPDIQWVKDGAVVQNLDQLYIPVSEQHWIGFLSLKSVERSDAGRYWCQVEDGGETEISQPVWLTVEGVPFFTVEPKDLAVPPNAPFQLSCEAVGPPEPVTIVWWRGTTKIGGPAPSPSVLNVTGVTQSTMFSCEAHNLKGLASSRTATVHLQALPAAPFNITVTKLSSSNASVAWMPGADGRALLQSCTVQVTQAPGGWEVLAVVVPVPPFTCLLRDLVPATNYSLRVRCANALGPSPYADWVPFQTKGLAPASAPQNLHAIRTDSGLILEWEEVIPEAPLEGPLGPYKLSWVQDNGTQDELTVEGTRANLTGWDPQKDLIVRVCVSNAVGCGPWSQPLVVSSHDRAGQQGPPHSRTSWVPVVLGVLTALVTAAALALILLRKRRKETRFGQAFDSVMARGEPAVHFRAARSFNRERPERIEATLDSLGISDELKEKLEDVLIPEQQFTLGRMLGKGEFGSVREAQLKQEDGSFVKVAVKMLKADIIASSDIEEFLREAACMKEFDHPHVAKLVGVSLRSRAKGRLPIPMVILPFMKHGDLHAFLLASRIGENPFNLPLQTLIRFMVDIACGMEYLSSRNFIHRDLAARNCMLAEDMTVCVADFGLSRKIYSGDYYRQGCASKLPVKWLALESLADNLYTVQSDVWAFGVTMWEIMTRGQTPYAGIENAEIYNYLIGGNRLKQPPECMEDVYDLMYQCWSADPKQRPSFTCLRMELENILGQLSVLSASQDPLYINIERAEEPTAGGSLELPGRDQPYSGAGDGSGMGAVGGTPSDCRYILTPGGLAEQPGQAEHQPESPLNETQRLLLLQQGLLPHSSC
Method: as §1

CK1alpha1 = target: T3, CK1alpha1 (Homo sapiens, UniProt P48729)
T3 construct: purchased ProQinase (Freiburg, Germany)
Method: as §1

SRMS = target: T4, SRMS (Homo sapiens, UniProt Q9H3Y6)
T4 construct: purchased ProQinase (Freiburg, Germany)
Method: as §1

CLK1 = target: T5, CLK1 (Homo sapiens, UniProt P49759)
T5 construct: purchased ProQinase (Freiburg, Germany)
Method: as §1

FER = target: T6, FER (Homo sapiens, UniProt P16591)
T6 construct: purchased ProQinase (Freiburg, Germany)
Method: as §1

TLK1 = target: T7, TLK1 (Homo sapiens, UniProt Q9UKI8)
T7 construct: purchased ProQinase (Freiburg, Germany)
T7 sequence (Q9UKI8 1-766): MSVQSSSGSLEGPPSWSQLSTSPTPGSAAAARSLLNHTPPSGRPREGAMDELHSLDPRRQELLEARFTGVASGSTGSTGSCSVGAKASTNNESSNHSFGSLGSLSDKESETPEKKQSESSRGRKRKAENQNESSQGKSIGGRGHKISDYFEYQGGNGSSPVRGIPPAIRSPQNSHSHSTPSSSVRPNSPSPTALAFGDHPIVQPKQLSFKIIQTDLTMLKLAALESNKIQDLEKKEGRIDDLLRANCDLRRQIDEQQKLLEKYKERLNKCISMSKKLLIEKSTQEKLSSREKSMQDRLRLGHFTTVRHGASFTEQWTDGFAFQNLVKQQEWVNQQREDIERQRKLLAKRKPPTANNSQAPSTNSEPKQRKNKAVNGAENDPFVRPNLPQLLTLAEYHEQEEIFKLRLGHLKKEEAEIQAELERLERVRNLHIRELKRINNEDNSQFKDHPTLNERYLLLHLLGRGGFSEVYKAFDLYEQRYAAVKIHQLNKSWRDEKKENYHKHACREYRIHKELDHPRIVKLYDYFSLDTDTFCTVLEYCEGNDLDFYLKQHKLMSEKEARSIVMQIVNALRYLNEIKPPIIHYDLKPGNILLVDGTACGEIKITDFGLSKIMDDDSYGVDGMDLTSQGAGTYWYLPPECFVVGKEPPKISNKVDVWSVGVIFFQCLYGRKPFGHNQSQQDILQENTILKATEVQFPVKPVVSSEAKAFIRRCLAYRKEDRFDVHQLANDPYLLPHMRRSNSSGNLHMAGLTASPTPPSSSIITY
Method: as §1

MAPKAPK3 = target: T8, MAPKAPK3 (Homo sapiens, UniProt Q16644)
T8 construct: purchased ProQinase (Freiburg, Germany)
Method: as §1

HIPK2 = target: T9, HIPK2 (Homo sapiens, UniProt Q9H2X6)
T9 construct: purchased ProQinase (Freiburg, Germany)
Method: as §1

AKT3 = target: T10, AKT3 (Homo sapiens, UniProt Q9Y243)
T10 construct: purchased ProQinase (Freiburg, Germany)
Method: as §1

T1 sequence (P31749 whole entry): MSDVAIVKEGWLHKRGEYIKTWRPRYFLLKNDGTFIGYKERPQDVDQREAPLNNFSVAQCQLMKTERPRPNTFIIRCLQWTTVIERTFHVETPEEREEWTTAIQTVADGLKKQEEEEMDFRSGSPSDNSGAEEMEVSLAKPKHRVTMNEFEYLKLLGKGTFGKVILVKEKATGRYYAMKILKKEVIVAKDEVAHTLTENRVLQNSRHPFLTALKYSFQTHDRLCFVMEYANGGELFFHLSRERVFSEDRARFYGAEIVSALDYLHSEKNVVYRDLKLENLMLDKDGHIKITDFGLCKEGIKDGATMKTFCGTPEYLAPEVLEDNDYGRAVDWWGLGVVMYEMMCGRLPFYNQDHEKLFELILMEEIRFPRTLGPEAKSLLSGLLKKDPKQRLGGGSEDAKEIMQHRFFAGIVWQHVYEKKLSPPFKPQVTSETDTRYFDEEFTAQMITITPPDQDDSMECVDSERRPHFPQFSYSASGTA
T6 sequence (P16591 whole entry): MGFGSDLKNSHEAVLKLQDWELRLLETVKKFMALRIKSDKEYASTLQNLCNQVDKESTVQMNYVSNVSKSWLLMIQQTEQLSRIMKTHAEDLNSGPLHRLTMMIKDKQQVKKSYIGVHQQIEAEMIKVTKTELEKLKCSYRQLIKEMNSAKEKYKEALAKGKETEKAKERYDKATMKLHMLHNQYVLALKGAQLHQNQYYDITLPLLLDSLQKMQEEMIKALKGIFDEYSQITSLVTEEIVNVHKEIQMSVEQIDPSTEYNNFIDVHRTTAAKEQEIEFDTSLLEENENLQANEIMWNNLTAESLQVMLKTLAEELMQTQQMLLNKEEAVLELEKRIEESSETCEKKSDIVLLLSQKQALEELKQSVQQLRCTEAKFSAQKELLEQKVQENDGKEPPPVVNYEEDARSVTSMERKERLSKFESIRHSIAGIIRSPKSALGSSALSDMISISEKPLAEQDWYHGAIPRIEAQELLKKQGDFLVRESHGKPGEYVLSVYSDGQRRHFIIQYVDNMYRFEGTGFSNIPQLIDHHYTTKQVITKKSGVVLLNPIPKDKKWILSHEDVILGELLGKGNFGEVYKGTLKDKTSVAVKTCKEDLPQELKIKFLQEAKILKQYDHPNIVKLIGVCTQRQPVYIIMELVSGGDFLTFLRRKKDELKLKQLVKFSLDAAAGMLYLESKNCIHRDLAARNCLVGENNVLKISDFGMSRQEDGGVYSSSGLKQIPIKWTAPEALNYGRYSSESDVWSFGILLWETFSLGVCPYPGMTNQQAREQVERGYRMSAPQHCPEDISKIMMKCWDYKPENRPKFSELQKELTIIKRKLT
T3 sequence (P48729 whole entry): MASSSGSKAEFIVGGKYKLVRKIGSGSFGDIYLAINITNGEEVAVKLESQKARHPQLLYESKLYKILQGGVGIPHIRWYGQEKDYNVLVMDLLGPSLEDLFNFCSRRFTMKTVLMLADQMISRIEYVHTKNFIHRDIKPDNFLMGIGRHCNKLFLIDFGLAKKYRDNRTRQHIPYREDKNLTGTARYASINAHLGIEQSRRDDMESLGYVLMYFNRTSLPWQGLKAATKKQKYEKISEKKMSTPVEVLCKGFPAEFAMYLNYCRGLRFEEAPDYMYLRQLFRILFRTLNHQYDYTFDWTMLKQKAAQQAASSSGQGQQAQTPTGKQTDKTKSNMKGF
T8 sequence (Q16644 whole entry): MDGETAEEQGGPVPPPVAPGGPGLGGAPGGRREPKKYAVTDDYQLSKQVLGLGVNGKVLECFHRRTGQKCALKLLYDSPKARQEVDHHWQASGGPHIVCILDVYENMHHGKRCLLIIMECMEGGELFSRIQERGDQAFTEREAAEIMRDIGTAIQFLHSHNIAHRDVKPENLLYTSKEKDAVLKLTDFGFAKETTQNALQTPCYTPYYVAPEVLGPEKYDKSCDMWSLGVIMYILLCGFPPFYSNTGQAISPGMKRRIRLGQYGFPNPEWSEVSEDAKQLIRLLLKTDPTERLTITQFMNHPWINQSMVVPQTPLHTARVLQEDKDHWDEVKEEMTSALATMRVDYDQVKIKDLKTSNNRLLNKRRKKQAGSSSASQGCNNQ
T9 sequence (Q9H2X6 whole entry): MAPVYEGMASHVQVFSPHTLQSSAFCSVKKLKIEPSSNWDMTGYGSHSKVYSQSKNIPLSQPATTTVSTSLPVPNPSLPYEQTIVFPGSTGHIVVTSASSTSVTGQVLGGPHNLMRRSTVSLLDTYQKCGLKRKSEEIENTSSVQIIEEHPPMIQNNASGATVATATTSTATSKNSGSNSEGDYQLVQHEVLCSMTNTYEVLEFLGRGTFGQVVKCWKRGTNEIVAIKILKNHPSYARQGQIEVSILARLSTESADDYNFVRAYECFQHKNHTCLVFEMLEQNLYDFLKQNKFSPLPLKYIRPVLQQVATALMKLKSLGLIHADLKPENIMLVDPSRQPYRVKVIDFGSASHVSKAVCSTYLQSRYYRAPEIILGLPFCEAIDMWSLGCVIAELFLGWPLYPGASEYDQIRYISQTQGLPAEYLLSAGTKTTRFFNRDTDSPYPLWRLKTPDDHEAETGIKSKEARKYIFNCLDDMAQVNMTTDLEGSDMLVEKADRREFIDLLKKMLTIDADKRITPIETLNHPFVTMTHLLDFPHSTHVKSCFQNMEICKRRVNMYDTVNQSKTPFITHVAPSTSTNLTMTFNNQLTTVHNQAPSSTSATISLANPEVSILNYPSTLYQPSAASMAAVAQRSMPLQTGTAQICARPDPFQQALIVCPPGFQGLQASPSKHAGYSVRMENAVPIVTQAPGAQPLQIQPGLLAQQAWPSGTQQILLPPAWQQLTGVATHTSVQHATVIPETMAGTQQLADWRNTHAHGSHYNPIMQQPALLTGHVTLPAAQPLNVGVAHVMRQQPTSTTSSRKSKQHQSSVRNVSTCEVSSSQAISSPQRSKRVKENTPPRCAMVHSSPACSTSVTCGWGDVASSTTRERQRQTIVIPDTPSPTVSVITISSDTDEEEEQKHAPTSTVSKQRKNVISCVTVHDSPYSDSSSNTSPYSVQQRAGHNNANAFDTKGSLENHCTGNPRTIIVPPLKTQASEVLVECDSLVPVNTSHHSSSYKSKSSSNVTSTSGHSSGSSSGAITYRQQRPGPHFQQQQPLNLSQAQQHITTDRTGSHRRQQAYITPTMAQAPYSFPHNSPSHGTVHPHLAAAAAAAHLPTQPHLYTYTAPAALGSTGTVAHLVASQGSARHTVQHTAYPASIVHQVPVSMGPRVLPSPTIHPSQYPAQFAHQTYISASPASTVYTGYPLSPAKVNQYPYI
T4 sequence (Q9H3Y6 whole entry): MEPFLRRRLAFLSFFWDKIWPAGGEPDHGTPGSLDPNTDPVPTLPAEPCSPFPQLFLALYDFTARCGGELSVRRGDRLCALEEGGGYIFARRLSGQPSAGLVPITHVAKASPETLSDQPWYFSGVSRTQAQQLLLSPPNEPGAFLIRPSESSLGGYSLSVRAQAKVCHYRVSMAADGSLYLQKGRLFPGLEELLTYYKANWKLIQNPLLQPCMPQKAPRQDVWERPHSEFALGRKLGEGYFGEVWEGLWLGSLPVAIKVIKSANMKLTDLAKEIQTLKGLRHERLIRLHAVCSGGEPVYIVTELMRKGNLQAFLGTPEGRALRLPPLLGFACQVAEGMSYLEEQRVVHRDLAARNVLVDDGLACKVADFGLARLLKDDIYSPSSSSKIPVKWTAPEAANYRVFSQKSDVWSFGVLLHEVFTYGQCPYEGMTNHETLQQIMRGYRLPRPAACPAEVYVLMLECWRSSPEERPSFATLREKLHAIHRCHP
T5 sequence (P49759 whole entry): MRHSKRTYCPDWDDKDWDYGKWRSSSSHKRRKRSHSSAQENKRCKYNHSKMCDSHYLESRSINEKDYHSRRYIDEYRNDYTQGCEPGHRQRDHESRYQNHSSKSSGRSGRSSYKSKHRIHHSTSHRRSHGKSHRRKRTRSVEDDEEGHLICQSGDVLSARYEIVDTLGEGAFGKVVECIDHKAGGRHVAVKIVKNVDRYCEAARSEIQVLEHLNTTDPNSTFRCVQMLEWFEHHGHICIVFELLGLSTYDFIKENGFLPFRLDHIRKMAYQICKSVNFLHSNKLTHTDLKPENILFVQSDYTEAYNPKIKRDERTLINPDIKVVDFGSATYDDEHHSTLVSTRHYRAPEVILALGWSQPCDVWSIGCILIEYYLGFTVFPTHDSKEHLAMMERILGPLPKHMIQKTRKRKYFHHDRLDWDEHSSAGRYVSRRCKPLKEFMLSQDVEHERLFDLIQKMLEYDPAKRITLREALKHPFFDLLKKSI
T10 sequence (Q9Y243 whole entry): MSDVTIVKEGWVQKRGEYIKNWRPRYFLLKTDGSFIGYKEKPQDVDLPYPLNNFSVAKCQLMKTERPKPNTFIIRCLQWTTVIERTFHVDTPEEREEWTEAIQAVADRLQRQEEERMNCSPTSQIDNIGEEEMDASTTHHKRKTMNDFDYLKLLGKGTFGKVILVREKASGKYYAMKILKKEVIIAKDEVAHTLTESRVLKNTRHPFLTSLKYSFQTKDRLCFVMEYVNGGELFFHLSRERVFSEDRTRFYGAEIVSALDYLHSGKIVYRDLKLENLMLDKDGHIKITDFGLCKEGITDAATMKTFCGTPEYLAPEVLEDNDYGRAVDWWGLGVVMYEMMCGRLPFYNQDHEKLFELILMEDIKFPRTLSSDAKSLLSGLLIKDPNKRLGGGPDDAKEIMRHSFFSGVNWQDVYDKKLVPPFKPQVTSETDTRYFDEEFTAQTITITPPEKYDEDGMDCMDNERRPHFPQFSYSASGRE

Structure (SMILES) | Residual activity (AKT1; 1.0E-05 M) | Residual activity (AKT1; 1.0E-06 M) | Residual activity (TYRO3; 1.0E-05 M) | Residual activity (TYRO3; 1.0E-06 M) | Residual activity (CK1alpha1; 1.0E-05 M) | Residual activity (CK1alpha1; 1.0E-06 M) | Residual activity (SRMS; 1.0E-05 M) | Residual activity (SRMS; 1.0E-06 M) | Residual activity (CLK1; 1.0E-05 M) | Residual activity (CLK1; 1.0E-06 M) | Residual activity (FER; 1.0E-05 M) | Residual activity (FER; 1.0E-06 M) | Residual activity (TLK1; 1.0E-05 M) | Residual activity (TLK1; 1.0E-06 M) | Residual activity (MAPKAPK3; 1.0E-05 M) | Residual activity (MAPKAPK3; 1.0E-06 M) | Residual activity (HIPK2; 1.0E-05 M) | Residual activity (HIPK2; 1.0E-06 M) | Residual activity (AKT3; 1.0E-05 M) | Residual activity (AKT3; 1.0E-06 M) | other results
O=C(Cc1ccccc1)Nc1ccc(F)c(Nc2ccc3c(c2)CCCCC3=O)c1 [Compound 100] | 88 % of control | 99 % of control | 77 % of control | 96 % of control | 108 % of control | 112 % of control | 93 % of control | 102 % of control | 79 % of control | 99 % of control | 94 % of control | 101 % of control | 131 % of control | 125 % of control | 50 % of control | 109 % of control | 101 % of control | 97 % of control | 100 % of control | 114 % of control | inhibition at 10 µM (MAPKAPK3; 10 µM): ≥ 50%
O=C(Nc1ccc(F)c(Nc2ccc3c(c2)CCCCC3=O)c1)c1cccc(F)c1 [Compound 109] | 97 % of control | 101 % of control | 92 % of control | 104 % of control | 102 % of control | 108 % of control | 97 % of control | 98 % of control | 96 % of control | 105 % of control | 90 % of control | 110 % of control | 114 % of control | 103 % of control | 65 % of control | 98 % of control | 95 % of control | 90 % of control | 102 % of control | 95 % of control | –
